Assay results from US20100285038A1, “Factor Involved in Metastasis and Uses Thereof” (priority 2002, published 2010).

Assays:
PRF1 protein = test: Western blot analysis of PRF1 protein expression in PC-3 cells; assay type: cell-based, human; settings: PC-3 cells; after 72 and 96 h; DMSO as control (FIG. 9A)
Experimental: A polyclonal antibody was generated against PRF1 using standard techniques. The polyclonal antibody thus obtained was tested for its specificity for PRF1. For that purpose, cell lysates from PC-3 cells treated with PRF1 specific antisense molecules, more particularly gene blocks, or mismatches thereof and cells transfected with expression plasmides for recombinant HA-tagged PRF1 were prepared. The lysates were analysed by Western blot analysis using the polyclonal antibody and the results are depicted in FIG. 8 A.
(§1) To investigate whether PI 3-kinase activity has an impact on PRF1 protein expression, PC-3 cells were treated either with LY294002 or with DMSO as control. Analysis was performed by Western Blot analysis using the polyclonal antibody as detection means for PRF1 protein. Apart from PRF1 protein, also expression of Akt and phosphorylated Akt (P*Akt) was monitored using respective specific antibodies. Additionally, the expression of p110α and p85 was monitored.
To investigate whether the expression of PRF1 at the protein level would also be dependent on Akt (PKB) activity and HIF1α activity PC-3 cells were treated with Akt specific antisense molecules. More particularly, two antisense molecules, designated Akt1-GB and Akt2-molecule were used with the readout being the same as discussed in connection with FIG. 9, whereby, additionally, the HIF1α protein expression was monitored using a commercially available protein G-purified polyclonal antibody (R&DSystems, Lot Number: IUGO13071).
The same experiment using the same markers for monitoring except Akt and P*-Akt was carried out with cells grown under hypoxic conditions which was realized by treating the cells with CoCl2. Two different forms of antisense molecules, namely HIF1α-GB66 and HIF1α-GB67 were used and respective mismatches used as controls.
A lane of the Blot represents the cell lysate of the cells shown in the corresponding photograph. As a read-out, p110 alpha and p85 are shown as loading control and the component of the PI-3K pathway investigated, i.e. AKT, monitored as P*AKT, HIF1 alpha and PRF1.

[1] = test system: Akt and phosphorylated Akt (P*Akt); test: Western blot analysis of Akt and phosphorylated Akt in PC-3 cells; assay type: cell-based, human; settings: DMSO as control (FIG. 9A)
Experimental: as §1

Structure (SMILES): O=c1cc(N2CCOCC2)oc2c(-c3ccccc3)cccc12 [LY294002, 2-(4-morpholinyl)-8-phenylchromone]
- PRF1 protein expression (PRF1 protein): down regulated
- Akt and phosphorylated Akt [1]: down regulated
